Assay results reported in publication PMC6591251, “Discovery of potent necroptosis inhibitors targeting RIPK1 kinase activity for the treatment of inflammatory disorder and cancer metastasis” (Cell Death & Disease, 2019).

Assays:
Assay in all cases: RBC kinase panel
Type in all cases: biochemical
Conditions in all cases: ATP 10 μM, Data1, Data2
ALK5/TGFBR1 = target: T1, ALK5/TGFBR1 (Homo sapiens, UniProt P36897)
T1 construct: purchased Reaction Biology Corporation
In short: (§1)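 Single-point screen: 1 μM compound, duplicate wells, 369-kinase human panel, ATP fixed at 10 μM.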

CAMK2a = target: T2, CAMK2a (Homo sapiens, UniProt Q9UQM7)
T2 construct: purchased Reaction Biology Corporation
In short: as §1

CDK7/cyclin H = target: T3, CDK7/cyclin H (Homo sapiens, UniProt P50613)
T3 construct: purchased Reaction Biology Corporation
T3 sequence (P50613 whole entry): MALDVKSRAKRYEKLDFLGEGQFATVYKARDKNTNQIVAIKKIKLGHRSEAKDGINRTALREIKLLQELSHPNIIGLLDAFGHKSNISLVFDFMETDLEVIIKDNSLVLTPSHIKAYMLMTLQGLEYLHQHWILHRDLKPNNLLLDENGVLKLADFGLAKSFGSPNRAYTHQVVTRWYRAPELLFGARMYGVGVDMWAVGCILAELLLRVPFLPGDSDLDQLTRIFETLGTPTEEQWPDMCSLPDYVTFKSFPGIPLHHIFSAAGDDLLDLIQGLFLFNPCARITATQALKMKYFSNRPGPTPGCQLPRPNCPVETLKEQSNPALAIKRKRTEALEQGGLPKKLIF
T3 sequence (P51946 whole entry partner): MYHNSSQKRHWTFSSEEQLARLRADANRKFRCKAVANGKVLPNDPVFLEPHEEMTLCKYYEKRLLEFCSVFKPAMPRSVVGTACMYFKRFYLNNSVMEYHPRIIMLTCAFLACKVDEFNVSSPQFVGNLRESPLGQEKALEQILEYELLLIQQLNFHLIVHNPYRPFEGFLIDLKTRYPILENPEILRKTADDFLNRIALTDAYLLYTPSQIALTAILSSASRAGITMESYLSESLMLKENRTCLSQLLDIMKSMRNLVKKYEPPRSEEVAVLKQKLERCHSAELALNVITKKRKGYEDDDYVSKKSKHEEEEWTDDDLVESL
T3 sequence (P51948 whole entry partner): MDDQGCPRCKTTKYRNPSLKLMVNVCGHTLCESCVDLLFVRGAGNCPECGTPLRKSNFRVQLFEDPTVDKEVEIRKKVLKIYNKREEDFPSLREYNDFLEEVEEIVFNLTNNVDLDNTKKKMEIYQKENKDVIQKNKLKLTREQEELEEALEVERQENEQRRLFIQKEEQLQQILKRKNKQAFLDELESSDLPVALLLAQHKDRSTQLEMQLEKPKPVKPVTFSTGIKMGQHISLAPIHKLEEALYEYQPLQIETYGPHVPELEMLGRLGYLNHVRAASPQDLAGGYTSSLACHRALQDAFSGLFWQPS
In short: as §1

CDK9/cyclin T2 = target: T4, CDK9/cyclin T2 (Homo sapiens, UniProt P50750)
T4 construct: purchased Reaction Biology Corporation
In short: as §1

CK1a1 = target: T5, CK1a1 (Homo sapiens, UniProt P48729)
T5 construct: purchased Reaction Biology Corporation
In short: as §1

CTK/MATK = target: T6, CTK/MATK (Homo sapiens, UniProt P42679)
T6 construct: purchased Reaction Biology Corporation
T6 sequence (P42679 whole entry): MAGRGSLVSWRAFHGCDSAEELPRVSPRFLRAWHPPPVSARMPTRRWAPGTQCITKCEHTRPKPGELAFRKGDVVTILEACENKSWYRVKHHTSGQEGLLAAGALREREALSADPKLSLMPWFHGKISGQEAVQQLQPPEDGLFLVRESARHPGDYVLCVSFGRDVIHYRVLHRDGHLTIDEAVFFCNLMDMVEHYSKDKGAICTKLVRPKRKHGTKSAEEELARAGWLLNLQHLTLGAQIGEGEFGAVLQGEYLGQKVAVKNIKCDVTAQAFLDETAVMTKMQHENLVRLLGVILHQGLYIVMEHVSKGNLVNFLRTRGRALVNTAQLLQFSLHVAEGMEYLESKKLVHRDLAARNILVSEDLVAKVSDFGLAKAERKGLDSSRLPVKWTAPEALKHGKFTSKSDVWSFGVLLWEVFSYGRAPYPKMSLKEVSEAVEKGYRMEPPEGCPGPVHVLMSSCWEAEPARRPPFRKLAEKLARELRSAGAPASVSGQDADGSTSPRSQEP
In short: as §1

DAPK2 = target: T7, DAPK2 (Homo sapiens, UniProt Q9UIK4)
T7 construct: purchased Reaction Biology Corporation
In short: as §1

DCAMKL1 = target: T8, DCAMKL1 (Homo sapiens, UniProt O15075)
T8 construct: purchased Reaction Biology Corporation
In short: as §1

EPHA7 = target: T9, EPHA7 (Homo sapiens, UniProt Q15375)
T9 construct: purchased Reaction Biology Corporation
T9 sequence (Q15375 28-998): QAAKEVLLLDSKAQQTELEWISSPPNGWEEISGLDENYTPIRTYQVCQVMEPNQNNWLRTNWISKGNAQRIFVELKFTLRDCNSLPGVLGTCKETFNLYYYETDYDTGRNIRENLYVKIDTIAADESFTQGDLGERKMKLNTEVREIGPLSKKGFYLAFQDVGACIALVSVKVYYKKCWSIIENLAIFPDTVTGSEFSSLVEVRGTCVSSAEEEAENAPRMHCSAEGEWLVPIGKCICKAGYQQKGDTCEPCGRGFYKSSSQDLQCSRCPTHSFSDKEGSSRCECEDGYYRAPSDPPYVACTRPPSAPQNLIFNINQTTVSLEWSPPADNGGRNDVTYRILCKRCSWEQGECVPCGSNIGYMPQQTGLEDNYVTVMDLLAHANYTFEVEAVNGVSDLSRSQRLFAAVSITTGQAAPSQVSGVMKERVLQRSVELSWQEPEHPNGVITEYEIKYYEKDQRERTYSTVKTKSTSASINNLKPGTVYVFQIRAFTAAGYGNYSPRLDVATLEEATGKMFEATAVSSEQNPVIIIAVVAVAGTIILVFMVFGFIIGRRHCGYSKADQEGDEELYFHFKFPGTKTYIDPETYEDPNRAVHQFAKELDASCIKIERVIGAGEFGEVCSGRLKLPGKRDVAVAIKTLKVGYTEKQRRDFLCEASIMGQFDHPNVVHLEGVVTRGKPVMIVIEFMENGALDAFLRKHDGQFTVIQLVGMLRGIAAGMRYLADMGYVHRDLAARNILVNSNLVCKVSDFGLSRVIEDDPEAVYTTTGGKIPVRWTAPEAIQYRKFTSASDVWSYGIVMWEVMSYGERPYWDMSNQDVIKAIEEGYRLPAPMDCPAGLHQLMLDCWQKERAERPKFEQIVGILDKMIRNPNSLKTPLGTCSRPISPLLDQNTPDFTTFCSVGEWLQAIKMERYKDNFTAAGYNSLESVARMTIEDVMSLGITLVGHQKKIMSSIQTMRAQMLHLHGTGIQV
In short: as §1

FGFR4 = target: T10, FGFR4 (Homo sapiens, UniProt P22455)
T10 construct: purchased Reaction Biology Corporation
In short: as §1

HIPK4 = target: T11, HIPK4 (Homo sapiens, UniProt Q8NE63)
T11 construct: purchased Reaction Biology Corporation
In short: as §1

LCK2/ICK = target: T12, LCK2/ICK (Homo sapiens, UniProt Q9UPZ9)
T12 construct: purchased Reaction Biology Corporation
In short: as §1

LKB1 = target: T13, LKB1 (Homo sapiens, UniProt Q15831)
T13 construct: purchased Reaction Biology Corporation
In short: as §1

LRRK2 = target: T14, LRRK2 (Homo sapiens, UniProt Q5S007)
T14 construct: purchased Reaction Biology Corporation
In short: as §1

LYN = target: T15, LYN (Homo sapiens, UniProt P07948)
T15 construct: purchased Reaction Biology Corporation
In short: as §1

MEK5 = target: T16, MEK5 (Homo sapiens, UniProt Q13163)
T16 construct: purchased Reaction Biology Corporation
In short: as §1

MLK3/MAP3K11 = target: T17, MLK3/MAP3K11 (Homo sapiens, UniProt Q16584)
T17 construct: purchased Reaction Biology Corporation
In short: as §1

MLK4 = target: T18, MLK4 (Homo sapiens, UniProt Q5TCX8)
T18 construct: purchased Reaction Biology Corporation
In short: as §1

OSR1/OXSR1 = target: T19, OSR1/OXSR1 (Homo sapiens, UniProt O95747)
T19 construct: purchased Reaction Biology Corporation
In short: as §1

PAK1 = target: T20, PAK1 (Homo sapiens, UniProt Q13153)
T20 construct: purchased Reaction Biology Corporation
In short: as §1

PAK3 = target: T21, PAK3 (Homo sapiens, UniProt O75914)
T21 construct: purchased Reaction Biology Corporation
In short: as §1

PHKg1 = target: T22, PHKg1 (Homo sapiens, UniProt Q16816)
T22 construct: purchased Reaction Biology Corporation
T22 sequence (Q16816 whole entry): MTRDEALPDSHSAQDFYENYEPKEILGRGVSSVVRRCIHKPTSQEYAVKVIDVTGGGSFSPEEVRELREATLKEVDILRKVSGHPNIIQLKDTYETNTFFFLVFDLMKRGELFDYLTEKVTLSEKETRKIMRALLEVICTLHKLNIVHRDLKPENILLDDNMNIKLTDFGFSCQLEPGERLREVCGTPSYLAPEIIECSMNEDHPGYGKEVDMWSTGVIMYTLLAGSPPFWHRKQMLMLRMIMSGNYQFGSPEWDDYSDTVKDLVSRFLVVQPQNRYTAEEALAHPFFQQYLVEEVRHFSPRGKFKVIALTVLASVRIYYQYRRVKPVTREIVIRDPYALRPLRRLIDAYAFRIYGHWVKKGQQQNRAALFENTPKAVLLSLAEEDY
In short: as §1

PIM1 = target: T23, PIM1 (Homo sapiens, UniProt P11309)
T23 construct: purchased Reaction Biology Corporation
In short: as §1

PKN2/PRK2 = target: T24, PKN2/PRK2 (Homo sapiens, UniProt Q16513)
T24 construct: purchased Reaction Biology Corporation
In short: as §1

PLK1 = target: T25, PLK1 (Homo sapiens, UniProt P53350)
T25 construct: purchased Reaction Biology Corporation
In short: as §1

PLK4/SAK = target: T26, PLK4/SAK (Homo sapiens, UniProt O00444)
T26 construct: purchased Reaction Biology Corporation
In short: as §1

ROS/ROS1 = target: T27, ROS/ROS1 (Homo sapiens, UniProt P08922)
T27 construct: purchased Reaction Biology Corporation
In short: as §1

RSK2 = target: T28, RSK2 (Homo sapiens, UniProt P51812)
T28 construct: purchased Reaction Biology Corporation
In short: as §1

SGK1 = target: T29, SGK1 (Homo sapiens, UniProt O00141)
T29 construct: purchased Reaction Biology Corporation
T29 sequence (O00141 whole entry): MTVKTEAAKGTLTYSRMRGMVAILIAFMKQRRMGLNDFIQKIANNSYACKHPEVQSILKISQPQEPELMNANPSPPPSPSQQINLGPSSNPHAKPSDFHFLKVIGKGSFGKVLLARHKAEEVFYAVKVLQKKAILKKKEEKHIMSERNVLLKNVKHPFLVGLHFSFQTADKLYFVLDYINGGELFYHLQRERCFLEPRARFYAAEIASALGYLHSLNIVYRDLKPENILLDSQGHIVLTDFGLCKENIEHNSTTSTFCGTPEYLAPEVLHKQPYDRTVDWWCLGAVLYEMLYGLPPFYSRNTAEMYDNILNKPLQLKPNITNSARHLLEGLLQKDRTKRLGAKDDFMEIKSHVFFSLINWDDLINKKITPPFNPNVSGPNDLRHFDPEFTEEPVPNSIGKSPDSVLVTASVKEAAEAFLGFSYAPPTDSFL
In short: as §1

STK32C/YANK3 = target: T30, STK32C/YANK3 (Homo sapiens, UniProt Q86UX6)
T30 construct: purchased Reaction Biology Corporation
T30 sequence (Q86UX6 whole entry): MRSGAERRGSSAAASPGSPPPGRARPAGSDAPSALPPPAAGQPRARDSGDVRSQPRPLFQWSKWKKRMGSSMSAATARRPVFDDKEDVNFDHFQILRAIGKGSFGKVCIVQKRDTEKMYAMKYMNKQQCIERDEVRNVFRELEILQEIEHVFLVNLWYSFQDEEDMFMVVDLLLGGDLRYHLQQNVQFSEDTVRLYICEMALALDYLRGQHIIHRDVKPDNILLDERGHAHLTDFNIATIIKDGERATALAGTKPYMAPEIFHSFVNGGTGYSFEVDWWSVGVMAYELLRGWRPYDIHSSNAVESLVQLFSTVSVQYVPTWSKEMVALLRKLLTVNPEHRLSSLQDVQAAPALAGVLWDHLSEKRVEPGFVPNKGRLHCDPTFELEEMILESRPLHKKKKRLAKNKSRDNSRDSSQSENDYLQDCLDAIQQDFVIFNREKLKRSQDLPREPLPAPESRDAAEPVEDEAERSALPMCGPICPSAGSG
In short: as §1

TIE2/TEK = target: T31, TIE2/TEK (Homo sapiens, UniProt Q02763)
T31 construct: purchased Reaction Biology Corporation
In short: as §1

ULK3 = target: T32, ULK3 (Homo sapiens, UniProt Q6PHR2)
T32 construct: purchased Reaction Biology Corporation
In short: as §1

ZIPK/DAPK3 = target: T33, ZIPK/DAPK3 (Homo sapiens, UniProt O43293)
T33 construct: purchased Reaction Biology Corporation
T33 sequence (O43293 whole entry): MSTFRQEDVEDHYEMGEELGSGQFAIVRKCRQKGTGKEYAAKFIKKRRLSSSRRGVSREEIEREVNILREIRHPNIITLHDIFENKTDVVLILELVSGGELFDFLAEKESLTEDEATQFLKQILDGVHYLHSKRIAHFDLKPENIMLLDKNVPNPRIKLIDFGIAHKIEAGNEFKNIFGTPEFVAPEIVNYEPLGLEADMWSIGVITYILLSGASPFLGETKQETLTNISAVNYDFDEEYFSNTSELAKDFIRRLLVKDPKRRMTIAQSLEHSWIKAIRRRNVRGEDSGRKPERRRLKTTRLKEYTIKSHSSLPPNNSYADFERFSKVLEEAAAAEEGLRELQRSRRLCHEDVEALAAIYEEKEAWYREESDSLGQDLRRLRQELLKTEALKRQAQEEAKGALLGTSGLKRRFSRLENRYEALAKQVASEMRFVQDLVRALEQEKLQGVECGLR
In short: as §1

T1 sequence (P36897 34-503): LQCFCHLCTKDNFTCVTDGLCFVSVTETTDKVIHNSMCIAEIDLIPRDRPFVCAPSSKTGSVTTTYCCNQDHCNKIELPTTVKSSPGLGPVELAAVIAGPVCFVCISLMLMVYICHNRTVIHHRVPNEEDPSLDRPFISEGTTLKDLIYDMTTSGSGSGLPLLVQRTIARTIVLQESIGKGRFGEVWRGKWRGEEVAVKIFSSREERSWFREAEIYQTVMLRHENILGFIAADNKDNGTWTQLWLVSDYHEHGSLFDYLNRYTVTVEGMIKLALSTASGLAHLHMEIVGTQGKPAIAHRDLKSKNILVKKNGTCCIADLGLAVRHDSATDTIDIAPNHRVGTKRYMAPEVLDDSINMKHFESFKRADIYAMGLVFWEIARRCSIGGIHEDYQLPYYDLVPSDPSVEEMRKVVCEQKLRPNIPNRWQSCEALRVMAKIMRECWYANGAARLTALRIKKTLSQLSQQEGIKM

SMILES: CC(=O)Nc1nc2ccc(-c3cnc(C)c(NC(=O)OC4CCCCC4)c3)cc2s1 [PK68, cyclohexyl (5-(2-acetamidobenzo[d]thiazol-6-yl)-2-methylpyridin-3-yl)carbamate]
- Activity% (ALK5/TGFBR1; 1 μM): 94.67%
- activity at 1 µM (ALK5/TGFBR1): 95.1%
- Activity% (CAMK2a; 1 μM): 99.17%
- activity at 1 µM (CAMK2a): 100%
- Activity% (CDK7/cyclin H; 1 μM): 87.73%
- activity at 1 µM (CDK7/cyclin H): 89.2%
- Activity% (CDK9/cyclin T2; 1 μM): 88.23%
- activity at 1 µM (CDK9/cyclin T2): 90.7%
- Activity% (CK1a1; 1 μM): 94.49%
- activity at 1 µM (CK1a1): 97%
- Activity% (CTK/MATK; 1 μM): 93.51%
- activity at 1 µM (CTK/MATK): 93.8%
- Activity% (DAPK2; 1 μM): 107.36%
- activity at 1 µM (DAPK2): 109%
- Activity% (DCAMKL1; 1 μM): 87.59%
- activity at 1 µM (DCAMKL1): 87.7%
- Activity% (EPHA7; 1 μM): 85.80%
- activity at 1 µM (EPHA7): 86.9%
- Activity% (FGFR4; 1 μM): 89.46%
- activity at 1 µM (FGFR4): 89.9%
- Activity% (HIPK4; 1 μM): 72.16%
- activity at 1 µM (HIPK4): 74.6%
- Activity% (LCK2/ICK; 1 μM): 100.77%
- activity at 1 µM (LCK2/ICK): 101%
- Activity% (LKB1; 1 μM): 102.07%
- activity at 1 µM (LKB1): 103%
- Activity% (LRRK2; 1 μM): 66.88%
- activity at 1 µM (LRRK2): 67.7%
- Activity% (LYN; 1 μM): 92.90%
- activity at 1 µM (LYN): 95.3%
- Activity% (MEK5; 1 μM): 97.06%
- activity at 1 µM (MEK5): 97.5%
- Activity% (MLK3/MAP3K11; 1 μM): 82.77%
- activity at 1 µM (MLK3/MAP3K11): 82.9%
- Activity% (MLK4; 1 μM): 104.45%
- activity at 1 µM (MLK4): 107%
- Activity% (OSR1/OXSR1; 1 μM): 102.40%
- activity at 1 µM (OSR1/OXSR1): 105%
- Activity% (PAK1; 1 μM): 101.03%
- activity at 1 µM (PAK1): 102%
- Activity% (PAK3; 1 μM): 99.63%
- activity at 1 µM (PAK3): 103%
- Activity% (PHKg1; 1 μM): 93.46%
- activity at 1 µM (PHKg1): 93.6%
- Activity% (PIM1; 1 μM): 100.16%
- activity at 1 µM (PIM1): 102%
- Activity% (PKN2/PRK2; 1 μM): 62.44%
- activity at 1 µM (PKN2/PRK2): 62.6%
- Activity% (PLK1; 1 μM): 93.68%
- activity at 1 µM (PLK1): 94.6%
- Activity% (PLK4/SAK; 1 μM): 89.27%
- activity at 1 µM (PLK4/SAK): 91.8%
- Activity% (ROS/ROS1; 1 μM): 88.56%
- activity at 1 µM (ROS/ROS1): 88.9%
- Activity% (RSK2; 1 μM): 90.87%
- activity at 1 µM (RSK2): 92.3%
- Activity% (SGK1; 1 μM): 93.47%
- activity at 1 µM (SGK1): 93.8%
- Activity% (STK32C/YANK3; 1 μM): 100.29%
- activity at 1 µM (STK32C/YANK3): 101%
- Activity% (TIE2/TEK; 1 μM): 82.66%
- activity at 1 µM (TIE2/TEK): 83.4%
- Activity% (ULK3; 1 μM): 92.16%
- activity at 1 µM (ULK3): 92.9%
- Activity% (ZIPK/DAPK3; 1 μM): 98.55%
- activity at 1 µM (ZIPK/DAPK3): 100%
